“And” between values parts separate entries of the source, which are not always exact repeats. Equal entries are not always repeated.
How the values were obtained:
Assay type in all cases: cell-based
BTK^FL = target: T1, BTK^FL (Homo sapiens, UniProt Q06187+Q13490); assay: Expi293 dose-dependent BTK degradation (western blot), BTK^FL co-transfected with cIAP1^FL; conditions: for DC50: Expi293, cIAP1^FL co-transfected, ~18 h, 3 experiments, read-out: DC50 for degradation of BTK^FL (WT)
T1 construct: we used a full-length BTK (aa1-659) with a C terminal Tobacco Etch Virus protease (TEV) site; expressed in transfected cells; host or cells: Expi293 (HEK293)
T1 sequence (Q06187 whole entry, the tested form may be a part): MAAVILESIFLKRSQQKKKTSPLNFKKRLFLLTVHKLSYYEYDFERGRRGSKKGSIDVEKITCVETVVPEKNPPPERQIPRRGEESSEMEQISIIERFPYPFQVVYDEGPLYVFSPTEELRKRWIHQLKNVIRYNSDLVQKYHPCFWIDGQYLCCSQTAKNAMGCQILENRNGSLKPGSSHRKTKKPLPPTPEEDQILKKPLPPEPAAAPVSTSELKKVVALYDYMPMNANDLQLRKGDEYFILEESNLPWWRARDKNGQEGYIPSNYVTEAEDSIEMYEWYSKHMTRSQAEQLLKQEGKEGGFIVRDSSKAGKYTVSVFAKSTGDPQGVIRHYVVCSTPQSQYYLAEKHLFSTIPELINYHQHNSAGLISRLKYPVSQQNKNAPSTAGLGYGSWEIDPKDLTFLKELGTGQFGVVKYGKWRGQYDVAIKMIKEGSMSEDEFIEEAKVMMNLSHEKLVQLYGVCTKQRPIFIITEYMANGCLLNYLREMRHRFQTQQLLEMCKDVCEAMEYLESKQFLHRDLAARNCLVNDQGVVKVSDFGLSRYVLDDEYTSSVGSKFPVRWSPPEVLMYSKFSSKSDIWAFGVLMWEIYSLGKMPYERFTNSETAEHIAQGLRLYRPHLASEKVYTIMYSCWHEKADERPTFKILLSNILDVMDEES
T1 sequence (Q13490 whole entry, the tested form may be a part): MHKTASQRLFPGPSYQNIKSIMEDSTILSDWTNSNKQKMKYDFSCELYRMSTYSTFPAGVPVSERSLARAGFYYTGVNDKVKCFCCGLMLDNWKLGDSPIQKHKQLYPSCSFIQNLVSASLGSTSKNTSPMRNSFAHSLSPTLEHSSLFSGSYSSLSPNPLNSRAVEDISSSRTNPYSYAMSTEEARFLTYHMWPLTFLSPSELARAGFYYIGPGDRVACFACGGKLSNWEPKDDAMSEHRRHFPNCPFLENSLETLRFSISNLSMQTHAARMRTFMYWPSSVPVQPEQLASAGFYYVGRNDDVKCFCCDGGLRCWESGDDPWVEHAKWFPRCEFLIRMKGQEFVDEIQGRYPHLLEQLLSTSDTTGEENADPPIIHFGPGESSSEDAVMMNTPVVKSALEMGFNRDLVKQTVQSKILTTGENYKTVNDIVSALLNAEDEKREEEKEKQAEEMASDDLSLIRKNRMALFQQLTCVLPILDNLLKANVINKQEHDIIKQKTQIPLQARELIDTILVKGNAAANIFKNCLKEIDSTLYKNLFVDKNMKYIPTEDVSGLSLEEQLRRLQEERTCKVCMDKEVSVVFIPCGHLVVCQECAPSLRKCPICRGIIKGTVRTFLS
Procedure: (§1) Gibco Expi293 cell line Transfection Kit (Cat.# A14524) was cultured according to the manufacturers conditions. Cells were grown at 37 °C with 5% CO2 to 4 × 10^6 cells/mL using an orbital shaker set to 95 RPM. Next cells were split to 2 × 10^6 cells/mL and transfected with plasmid DNA at a 1 µg/mL final concentration in Optimem (Gibco 31985070) using the Expifectamine 293 transfection reagent according to manufacturer’s conditions. After approximately 18 h, enhancers 1 and 2 (provided with kit). Viability was typically about 85%. When cIAP1^FL was transfected, it was detected via α-cIAP1 antibody there was typically some autoubiquitination detected, and thus often appeared as a laddered or smeared band via western blotting. When BTK^FL variants were transfected, they were detected using anti-BTK antibody (D3H5).
(§2) For dose-dependent degradation assays, cells were plated in a 24-well format and placed on a separate orbital shaker set to 115 RPM. Each well was treated with prescribed compound concentrations in the same manner as with THP-1 cells, with the exception of using Expifectamine 293 growth medium in place of RPMI 1640 complete media. After approximately 18 h post-treatment cells were harvested, centrifuged at 100 x g at 4 °C, washed twice with ice-cold PBS, and resuspended in RIPA buffer supplemented with a Roche protease inhibitor cocktail (Cat. #11873580001), and benzonase nuclease (Millipore-Sigma Cat# 70664). Each sample was incubated on ice for 30 min with periodic vortexing and centrifuged at 15 Kxg for 20 min. Clarified lysate was harvested and quantified using a Pierce BCA Assay Kit (Cat. #23225), and 20 µg of the sample was loaded into a 4–15% Criterion TGX gel (Bio-Rad, 5678085) and transferred to a nitrocellulose membrane (Life Technologies Cat. #IB23001) using an iBlot 2 (Life Technologies Cat. #IB21001). Proteins were detected using an iBind system (Life Technologies SLF2020). For BTK^T474I and BTK^T474I/C481S we inferred ligand entry into cells via the autoubiquitination and dose-dependent degradation of cIAP1^FL,[58].
(§3) Dose-dependent Degradation was analyzed using ImageJ (NIH, version 1.50i). Densiometric analysis was performed, normalized to DMSO signal, and analyzed using GraphPad Prism (Version 9.0.0 (121)). Non-linear fit one-phase decay analysis was used to obtain DC50 values. When we observed a hook effect, some points were excluded as part of the fit. In Supplementary Fig. 7B the complete curve was fit using GraphPad Prism non-linear regression bell-shaped curve where X is the concentration. However, using this method we were unable to obtain stable values for our DC50. SEM error was plotted for each point. When determining statistically significant differences, we used a two-sided student’s unpaired T-Test.

BTK^FL-C481S [1] = target: T2, BTK^FL-C481S (Homo sapiens, UniProt Q06187+Q13490, C481S); assay: Expi293 dose-dependent BTK degradation (western blot), BTK^FL-C481S co-transfected with cIAP1^FL; conditions: for C481S BTK blot signal normalized to DMSO: replicates; for DC50: Expi293, cIAP1^FL co-transfected, ~18 h, 3 experiments
T2 construct: we used a full-length BTK (aa1-659) with a C terminal Tobacco Etch Virus protease (TEV) site; expressed in transfected cells; host or cells: Expi293 (HEK293)
T2 sequence (Q06187 whole entry C481S, the tested form may be a part): as the sequence (Q06187 whole entry, the tested form may be a part) above, with C481S counted along it
T2 sequence (Q13490 whole entry, the tested form may be a part): as the sequence (Q13490 whole entry, the tested form may be a part) above
Procedure: as §1, §2, §3

BTK^FL-C481S [2] = target: T2, BTK^FL-C481S; assay: Expi293 time-dependent degradation of BTK^FL-C481S; conditions: 5 µM; for BTK^FL-C481S blot signal normalized to time 0: replicates
Procedure: as §1
For covalent modification detection assays, the compound was added to Expi293 cells after enhancer treatment. At each timepoint 10 mL of cells were harvested, rapidly cooled to 4 °C in an ice bath, and centrifuged at 100 x g at 4 °C for 5 min. The pellet was washed twice with ice-cold PBS, snap-frozen in liquid nitrogen, and stored at −80 °C. Each pellet was resuspended in 0.1 mL ice-cold RIPA Buffer supplemented with 40 µM BCNC (to outcompete any remaining BCCov), protease inhibitor, and benzonase, and sonicated with 10 brief blasts at power 20. Lysate was centrifuged at 15 K x g for 20 min at 4 °C and prepared for western blotting as detailed above. When samples were evaluated for covalent adduct formation, a purification step was required. Briefly, the ~1 mL of clarified lysate was added to 9 mL of FLAG binding buffer (25 mM HEPES 7.5, 300 mM NaCl, 10% glycerol). These samples were incubated with 250 µL of anti-FLAG M2 affinity resin (Millipore-Sigma Cat. # A2220) for 3 h at 4 °C with gentle nutation. Samples were washed via gravity column filtration and eluted with 0.2 mg/ml FLAG Peptide (DYKDDDDK, CPC Scientific Peptide Company). Each sample was concentrated to 0.1 mg/mL using an Amicon Ultra-15 Centrifugal filter with a 50 kDa MWCO (Millipore-Sigma Cat. # UFC905024). Details on mass spectrometry analysis are below.

Row | Structure (SMILES) | WT BTK blot signal normalized to DMSO (BTK^FL; 0.004883 uM, replicates) | WT BTK blot signal normalized to DMSO (BTK^FL; 0.009766 uM, replicates) | WT BTK blot signal normalized to DMSO (BTK^FL; 0.019531 uM, replicates) | WT BTK blot signal normalized to DMSO (BTK^FL; 0.039063 uM, replicates) | WT BTK blot signal normalized to DMSO (BTK^FL; 0.078125 uM, replicates) | WT BTK blot signal normalized to DMSO (BTK^FL; 0.15625 uM, replicates) | WT BTK blot signal normalized to DMSO (BTK^FL; 0.3125 uM, replicates) | WT BTK blot signal normalized to DMSO (BTK^FL; 0.625 uM, replicates) | WT BTK blot signal normalized to DMSO (BTK^FL; 1.25 uM, replicates) | WT BTK blot signal normalized to DMSO (BTK^FL; 2.5 uM, replicates) | WT BTK blot signal normalized to DMSO (BTK^FL; 5 uM, replicates) | DC50 (BTK^FL) | C481S BTK blot signal normalized to DMSO (BTK^FL-C481S [1]; 0.004883 uM) | C481S BTK blot signal normalized to DMSO (BTK^FL-C481S [1]; 0.009766 uM) | C481S BTK blot signal normalized to DMSO (BTK^FL-C481S [1]; 0.019531 uM) | C481S BTK blot signal normalized to DMSO (BTK^FL-C481S [1]; 0.039063 uM) | C481S BTK blot signal normalized to DMSO (BTK^FL-C481S [1]; 0.078125 uM) | C481S BTK blot signal normalized to DMSO (BTK^FL-C481S [1]; 0.15625 uM) | C481S BTK blot signal normalized to DMSO (BTK^FL-C481S [1]; 0.3125 uM) | C481S BTK blot signal normalized to DMSO (BTK^FL-C481S [1]; 0.625 uM) | also measured
1 | CNC(C)C(=O)NC(C(=O)N1CC(NC(=O)COCCN2CCN(CC=CC(=O)N3CCCC(n4nc(-c5ccc(Oc6ccccc6)cc5)c5c(N)ncnc54)C3)CC2)CC1C(=O)NC1CCCc2ccccc21)C1CCCCC1 (stereo not drawn) [BCCov] | 0.92 and 0.99 and 1.00 | 0.74 and 1.02 and 0.84 | 0.72 and 0.83 and 0.75 | 0.52 and 0.87 and 0.78 | 0.38 and 0.65 and 0.51 | 0.29 and 0.54 and 0.30 | 0.25 and 0.36 and 0.30 | 0.21 and 0.32 and 0.16 | 0.20 and 0.35 and 0.15 | 0.24 and 0.40 and 0.29 | 0.68 and 0.77 and 0.51 | 57.2 ± 28 nM | 0.87 and 0.90 and 0.91 | 0.89 and 0.76 and 0.79 | 0.87 and 0.66 and 0.82 | 0.76 and 0.72 and 0.87 | 0.63 and 0.53 and 0.56 | 0.51 and 0.41 and 0.42 | 0.35 and 0.41 and 0.28 | 0.26 and 0.34 and 0.16 | BTK level normalized to untreated BTK^FL, Figure 1B Lane 2 (BTK^FL; 5 µM, BTK^FL without cIAP1^FL, replicates): 1.30 and 0.97 and 0.91; BTK degradation without cIAP1^FL (BTK^FL; BTK^FL transfected without cIAP1^FL (Fig. 1B, lane 2)): no observable ligand-induced BTK degradation; hook effect in degradation profile (BTK^FL; wt BTK^FL, Expi293): partial hook effect; C481S BTK blot signal normalized to DMSO (BTK^FL-C481S [1]; 1.25 uM): 0.27 and 0.20 and 0.13; C481S BTK blot signal normalized to DMSO (BTK^FL-C481S [1]; 2.5 uM): 0.21 and 0.11 and 0.057; C481S BTK blot signal normalized to DMSO (BTK^FL-C481S [1]; 5 uM): 0.21 and 0.09 and 0.0641; DC50 (BTK^FL-C481S [1]): 122 ± 44 nM; rate of BTK^FL-C481S degradation compared with BTK^FL (BTK^FL-C481S [2]): slower rate; BTK^FL-C481S blot signal normalized to time 0 (BTK^FL-C481S [2]; 0.5 h): 0.75 and 0.78 and 0.82; BTK^FL-C481S blot signal normalized to time 0 (BTK^FL-C481S [2]; 1 h): 0.77 and 0.74 and 0.81; BTK^FL-C481S blot signal normalized to time 0 (BTK^FL-C481S [2]; 2 h): 0.71 and 0.76 and 0.72; BTK^FL-C481S blot signal normalized to time 0 (BTK^FL-C481S [2]; 3.5 h): 0.60 and 0.65 and 0.66; BTK^FL-C481S blot signal normalized to time 0 (BTK^FL-C481S [2]; 5.5 h): 0.58 and 0.55 and 0.61; BTK^FL-C481S blot signal normalized to time 0 (BTK^FL-C481S [2]; 7 h): 0.41 and 0.48 and 0.42; BTK^FL-C481S blot signal normalized to time 0 (BTK^FL-C481S [2]; 17 h): 0.07 (2×) and 0.02
2 | CNC(C)C(=O)NC(C(=O)N1CC(NC(=O)COCCN2CCN(CCCC(=O)N3CCCC(n4nc(-c5ccc(Oc6ccccc6)cc5)c5c(N)ncnc54)C3)CC2)CC1C(=O)NC1CCCc2ccccc21)C1CCCCC1 (stereo not drawn) [BCNC] | 0.92 and 1.00 (2×) | 0.74 and 1.02 and 0.84 | 0.72 and 0.83 and 0.75 | 0.52 and 0.87 and 0.78 | 0.38 and 0.65 and 0.51 | 0.29 and 0.54 and 0.30 | 0.25 and 0.36 and 0.30 | 0.21 and 0.32 and 0.16 | 0.2 and 0.35 and 0.15 | 0.24 and 0.40 and 0.29 | 0.68 and 0.77 and 0.51 | 149 ± 70 nM | 0.87 and 1.00 (2×) | 0.89 and 0.76 and 0.79 | 0.87 and 0.66 and 0.82 | 0.76 and 0.72 and 0.87 | 0.63 and 0.53 and 0.56 | 0.51 and 0.41 and 0.42 | 0.35 and 0.41 and 0.28 | 0.26 and 0.34 and 0.16 | C481S BTK blot signal normalized to DMSO (BTK^FL-C481S [1]; 1.25 uM): 0.27 and 0.20 and 0.13; C481S BTK blot signal normalized to DMSO (BTK^FL-C481S [1]; 2.5 uM): 0.21 and 0.11 and 0.057; C481S BTK blot signal normalized to DMSO (BTK^FL-C481S [1]; 5 uM): 0.21 and 0.09 and 0.0641; DC50 (BTK^FL-C481S [1]): 145 ± 58 nM; BTK^FL-C481S blot signal normalized to time 0 (BTK^FL-C481S [2]; 0.5 h): 0.79 and 0.85 and 0.76; BTK^FL-C481S blot signal normalized to time 0 (BTK^FL-C481S [2]; 1 h): 0.74 and 0.81 and 0.78; BTK^FL-C481S blot signal normalized to time 0 (BTK^FL-C481S [2]; 2 h): 0.68 and 0.72 and 0.69; BTK^FL-C481S blot signal normalized to time 0 (BTK^FL-C481S [2]; 3.5 h): 0.53 and 0.64 and 0.52; BTK^FL-C481S blot signal normalized to time 0 (BTK^FL-C481S [2]; 5.5 h): 0.35 and 0.44 and 0.38; BTK^FL-C481S blot signal normalized to time 0 (BTK^FL-C481S [2]; 7 h): 0.35 and 0.32 and 0.33; BTK^FL-C481S blot signal normalized to time 0 (BTK^FL-C481S [2]; 17 h): 0.00 and 0.04 (2×)

Source: article PMC9981747, “A covalent BTK ternary complex compatible with targeted protein degradation” (Nature Communications, 2023)
